# Reference: publication PMC3043358 (The Prostate, 2010)
# Target: DNMT1 (Homo sapiens, UniProt P26358)
# Type: biochemical
# DNMT1, sequence (P26358 whole entry): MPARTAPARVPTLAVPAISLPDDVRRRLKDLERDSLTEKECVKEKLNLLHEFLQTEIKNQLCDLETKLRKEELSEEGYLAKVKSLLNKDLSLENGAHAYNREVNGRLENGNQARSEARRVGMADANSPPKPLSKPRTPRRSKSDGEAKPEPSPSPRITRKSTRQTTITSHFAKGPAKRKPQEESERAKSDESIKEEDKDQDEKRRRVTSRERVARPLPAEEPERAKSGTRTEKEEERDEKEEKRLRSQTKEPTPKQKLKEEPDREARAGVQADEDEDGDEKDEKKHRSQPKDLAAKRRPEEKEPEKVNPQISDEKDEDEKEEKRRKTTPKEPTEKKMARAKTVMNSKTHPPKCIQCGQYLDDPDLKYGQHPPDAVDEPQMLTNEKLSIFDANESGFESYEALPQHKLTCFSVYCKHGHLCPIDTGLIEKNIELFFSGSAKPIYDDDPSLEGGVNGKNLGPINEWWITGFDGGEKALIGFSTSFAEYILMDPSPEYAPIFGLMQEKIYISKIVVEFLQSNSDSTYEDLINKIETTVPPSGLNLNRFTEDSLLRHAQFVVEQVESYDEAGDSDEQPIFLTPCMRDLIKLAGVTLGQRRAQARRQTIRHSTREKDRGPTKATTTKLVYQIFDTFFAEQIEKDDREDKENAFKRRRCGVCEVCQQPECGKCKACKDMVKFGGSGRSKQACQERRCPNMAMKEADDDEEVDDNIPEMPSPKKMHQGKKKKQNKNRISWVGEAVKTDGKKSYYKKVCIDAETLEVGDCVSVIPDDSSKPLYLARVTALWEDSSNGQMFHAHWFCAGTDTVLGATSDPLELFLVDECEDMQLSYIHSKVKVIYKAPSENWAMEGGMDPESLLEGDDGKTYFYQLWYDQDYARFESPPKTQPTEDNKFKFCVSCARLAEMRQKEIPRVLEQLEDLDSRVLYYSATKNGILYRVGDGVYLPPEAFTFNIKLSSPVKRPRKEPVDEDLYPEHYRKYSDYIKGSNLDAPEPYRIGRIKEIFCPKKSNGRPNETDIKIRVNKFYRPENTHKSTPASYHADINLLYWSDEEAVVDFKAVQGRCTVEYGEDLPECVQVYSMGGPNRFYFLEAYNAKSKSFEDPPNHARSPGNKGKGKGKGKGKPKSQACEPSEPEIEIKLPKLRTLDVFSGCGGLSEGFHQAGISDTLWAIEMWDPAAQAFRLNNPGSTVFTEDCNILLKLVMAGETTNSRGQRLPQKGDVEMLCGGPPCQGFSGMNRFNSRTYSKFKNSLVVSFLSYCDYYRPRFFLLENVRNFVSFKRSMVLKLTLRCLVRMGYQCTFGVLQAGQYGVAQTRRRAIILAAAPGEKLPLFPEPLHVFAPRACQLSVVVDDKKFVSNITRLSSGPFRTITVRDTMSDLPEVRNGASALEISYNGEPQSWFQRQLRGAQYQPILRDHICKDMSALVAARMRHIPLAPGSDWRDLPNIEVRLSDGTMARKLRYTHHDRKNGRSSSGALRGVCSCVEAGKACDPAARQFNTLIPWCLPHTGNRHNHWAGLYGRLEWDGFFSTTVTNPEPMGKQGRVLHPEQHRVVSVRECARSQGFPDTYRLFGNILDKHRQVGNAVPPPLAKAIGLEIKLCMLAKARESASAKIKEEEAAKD
smiles,measurement,value
"CCN(CC)C(=S)SSC(=S)N(CC)CC [DSF, Disulfiram]","in vitro methyltransferase assay, tritium incorporation from 3H-AdoMet into hemi",95% reduction of activity at 200
